Assay [1] relates to apomorphine-induced emesis. Put plainly: apomorphine test in dogs (APO-dog): protection from emesis. The format is in vivo, beagle dogs. Conditions: Canis lupus familiaris, sc, apomorphine 0.31 mg/kg s.c. 1 hour after compound, dose protecting 50% from emesis. The source says:
2. The apomorphine test in dogs (APO-dog). The method used is described by P. A. J. Janssen and C. J. E. Niemegeers in Arzneim.-Forsch.

The test system of assay [2] is lesions induced by compound 48/80. Put plainly: gastric lesion test: lesions induced by compound 48/80. The class given is in vivo, rats. As to conditions: Rattus norvegicus.
Assay [3] deals with tryptamine-induced bilateral tonic seizures. Put plainly: combined test in rats: tryptamine (TRY)-induced bilateral tonic seizures. The class given is in vivo, adult male Wistar rats. As to conditions: sc, 1.5 h; s.c.; rat; tryptamine 40 mg/kg i.v. at 90 minutes; dose protecting 50% of animals; read-out: ED0 (TRY)-rat.
The subject of assay [4] is apomorphine-induced phenomena: agitation and stereotypic chewing. Put plainly: combined test in rats: apomorphine (APO)-induced agitation and stereotypic chewing. Conditions: sc, 0.5 h; s.c.; rat; apomorphine hydrochloride 1.25 mg/kg i.v. 30 minutes after compound; dose protecting 50% of animals. The class given is in vivo, adult male Wistar rats.
The test system of assay [5] is lesions induced by compound 48/80. As to conditions: rats, known serotonin antagonists; cited from earlier work.

SMILES strings stand for the structures.

Turning to `O=c1[nH]c2ccccc2n1CCCN1CCC(CC(O)c2ccc(F)cc2)CC1` (stereo not shown), the ED50 in assay [1] amounted to 0.5 mg/kg; in assay [2], 0.08 mg/kg.

Regarding `Cc1ccc2c(c1)[nH]c(=O)n2CCN1CCC(CC(=O)c2ccc(F)cc2)CC1` [5-CH3, H, H, (CH2)2, CO, 4-FC6 H4, base], the ED50 is 0.63 mg/kg in assay [3], 0.08 mg/kg in assay [1] and 0.63 mg/kg in assay [2].

Regarding `O=C(CC1CCN(CCn2c(=O)[nH]c3cc(Cl)ccc32)CC1)c1ccc(F)cc1` [5-Cl, H, H, (CH2)2, CO, 4-FC6 H4, base], the ED50 in assay [4] was 2.5 mg/kg; in assay [3], 5 mg/kg; in assay [1], 0.12 mg/kg; in assay [2], 0.63 mg/kg.

For `O=C(CC1CCN(CCn2c(=O)[nH]c3cc(F)ccc32)CC1)c1ccc(F)cc1` [5-F, H, H, (CH2)2, CO, 4-FC6 H4, base], the ED50 in assay [4] was 0.16 mg/kg; in assay [3], 0.63 mg/kg; in assay [2], 0.31 mg/kg.

For the molecule `O=C(CC1CCN(CCn2c(=O)[nH]c3ccc(Cl)cc32)CC1)c1ccc(F)cc1` [6-Cl, H, H, (CH2)2, CO, 4-FC6 H4, base], the ED50 in assay [4] worked out at 2.5 mg/kg; in assay [3], 1.25 mg/kg; in assay [1], 0.5 mg/kg; in assay [2], 0.63 mg/kg.

For the molecule `CC(=O)n1c(=O)n(CCN2CCC(CC(=O)c3ccc(F)cc3)CC2)c2ccccc21` [H, H, CH3 CO, (CH2)2, CO, 4-FC6 H4, base, 1-acetyl-3-[2-[4-[2-(4-fluorophenyl)-2-oxoethyl]-1-piperidinyl]ethyl]-1,3-dihydro-2H-benzimidazol-2-one], the ED50 in assay [4] was 1.25 mg/kg; in assay [3], 1.25 mg/kg; in assay [1], 1 mg/kg; in assay [2], 0.08 mg/kg.

For `Cn1c(=O)n(CCN2CCC(CC(=O)c3ccc(F)cc3)CC2)c2ccccc21` [H, H, CH3, (CH2)2, CO, 4-FC6 H4, base], the ED50 in assay [4] is 0.63 mg/kg; in assay [3], 0.63 mg/kg; in assay [1], 0.63 mg/kg; in assay [2], 0.31 mg/kg.

In the case of `Cn1c(=O)n(CCCN2CCC(CC(=O)c3ccc(F)cc3)CC2)c2ccccc21` [H, H, CH3, (CH2)3, CO, 4-FC6 H4, base], the ED50 in assay [3] turned out to be 1.25 mg/kg; in assay [2], 0.31 mg/kg.

With `Cc1ccc(C(=O)CC2CCN(CCn3c(=O)[nH]c4ccccc43)CC2)cc1` [H, H, H, (CH2)2, CO, 4-CH3C6 H4, base], the ED50 is 2.5 mg/kg in assay [3], 0.5 mg/kg in assay [1] and 0.63 mg/kg in assay [2].

Regarding `O=C(CC1CCN(CCn2c(=O)[nH]c3ccccc32)CC1)c1ccc(Cl)cc1` [H, H, H, (CH2)2, CO, 4-ClC6 H4, base], the ED50 in assay [4] came to 0.63 mg/kg; in assay [3] it was 2.5 mg/kg; in assay [1] it was 0.5 mg/kg; in assay [2] it was 0.16 mg/kg.

`O=C(CC1CCN(CCn2c(=O)[nH]c3ccccc32)CC1)c1ccc(F)cc1` [H, H, H, (CH2)2, CO, 4-FC6 H4, base, 1-[2-[4-[2-(4-fluorophenyl)-2-oxoethyl]-1-piperidinyl]ethyl]-1,3-dihydro-2H-benzimidazol-2-one]: the ED50 in assay [4] stood at 0.31 mg/kg; in assay [3] it was 0.31 mg/kg; in assay [1] it was 0.03 mg/kg; in assay [2], 0.01 mg/kg.

Take `O=C(CC1CCN(CCn2c(=O)[nH]c3ccccc32)CC1)c1ccccc1` [H, H, H, (CH2)2, CO, C6 H5, base]: the ED50 in assay [4] was determined as 0.63 mg/kg; in assay [3] it was 2.5 mg/kg; in assay [1], 0.25 mg/kg; in assay [2], 0.31 mg/kg.

With `O=C(CC1CCN(CCCn2c(=O)[nH]c3ccccc32)CC1)c1ccc(F)cc1` [H, H, H, (CH2)3, CO, 4-FC6 H4, base, 1-[3-[4-[2-(4-fluorophenyl)-2-oxoethyl]-1-piperidinyl]propyl]-1,3-dihydro-2H-benzimidazol-2-one], the figures for the ED50 in assay [3] and in assay [2] were 1.25 mg/kg and 0.08 mg/kg, respectively.

For `CC(CCn1c(=O)[nH]c2ccccc21)N1CCC(CC(=O)c2ccc(F)cc2)CC1` (stereo not shown) [H, H, H, [drawing 21], CO, 4-FC6 H4, base, 1-[3-[4-[2-(4-fluorophenyl)-2-oxoethyl]-1-piperidinyl]butyl]-1,3-dihydro-2H-benzimidazol-2-one], the ED50 in assay [3] was 5 mg/kg; in assay [2], 1.25 mg/kg.

Turning to `CN(C)CCCSc1ccccc1NC(=O)/C=C/c1ccccc1` [cinanserin], in assay [5], the “prevention of cyanosis of ears and extremities” value was “prevent completely”; the “prevention of lesions in the glandular area of the stomach and abnormal gastric distension” value (“prevention of lesions” below) is given as “prevent completely”.

`CN1CCC(=C2c3ccccc3C=Cc3ccccc32)CC1` [cyproheptadine]: in assay [5], the “prevention of cyanosis of ears and extremities” value is “prevent completely”; the “prevention of lesions” value is on record as “prevent completely”.

On to `CN1C[C@H](CNC(=O)OCc2ccccc2)C[C@@H]2c3cccc4c3c(cn4C)C[C@H]21` [metergoline], for which, in assay [5], the “prevention of cyanosis of ears and extremities” value is on record as “prevent completely”; the “prevention of lesions” value is on record as “prevent completely”.

For the molecule `CC[C@@H](CO)NC(=O)[C@@H]1C=C2c3cccc4c3c(cn4C)C[C@H]2N(C)C1` [methysergide], in assay [5], the “prevention of cyanosis of ears and extremities” value is reported as “prevent completely”; the “prevention of lesions” value is recorded as “prevent completely”.

Regarding `CN1CCN2c3ccccc3Cc3ccccc3C2C1` (stereo not shown) [mianserin], in assay [5], the “prevention of cyanosis of ears and extremities” value was “prevent completely”; the “prevention of lesions” value is given as “prevent completely”.

`NC(=O)C1(N2CCCCC2)CCN(CCCC(=O)c2ccc(F)cc2)CC1` [pipamperone]: in assay [5], the “prevention of cyanosis of ears and extremities” value is recorded as “prevent completely”; the “prevention of lesions” value is recorded as “prevent completely”.

As to `CN1CCC(=C2c3ccccc3CCc3sccc32)CC1` [pizotifen], in assay [5], the “prevention of cyanosis of ears and extremities” value is “prevent completely”; the “prevention of lesions” value was “prevent completely”.

In the case of `O=C(CCCN1CCC2(CC1)C(=O)NCN2c1ccccc1)c1ccc(F)cc1` [spiperone], in assay [5], the “prevention of cyanosis of ears and extremities” value is “prevent completely”; the “prevention of lesions” value is “prevent completely”.

Source of the values: US4254127A, “1,3-Dihydro-1-[(1-piperidinyl)alkyl]-2H-benzimidazol-2-one derivatives” (Janssen Pharmaceutica, N.V., priority 1980, dated 1981).
